Where two headings read alike, the source gives them in different places.

One data set relates to stress ulcer. As to the kind of experiment: Effect on stress ulcer (water-immersion restraint), oral. Format: in vivo, SD rats. The conditions noted are these: Rattus norvegicus, read-out: Inhibition rate (stress ulcer). Here is the method: Male SD rats (body weight: 260-290 g) which had fasted for 24 hours were placed in a wire net-restraint cage and immersed up to the breast in water at 23° C. After 7 hours, the animals were sacrificed, and the stomach were excised. […] The test compound was suspended in 5% gum arabic solution and orally administered 30 minutes before the stress load.
Cimetidine was used as control drug.

The next data set deals with mice. Briefly: Acute toxicity test, intraperitoneal, mice. The settings on record: n=5-6, up to 500 mg/kg. In kind it is in vivo. The text has this:
From the above-mentioned results it is evident that the antiulcer activity of the compounds (I) of this invention was about ten times as potent as that of control drug.

Setting [1] is: oral, 30 minutes before stress load, male SD rats, 23° C. water immersion, 7 hours.
Where [2] appears, read: 30 mg/kg, oral, 30 minutes before stress load, male SD rats, 23° C. water immersion, 7 hours.

For `O=C(Sc1cccn2c(=O)ccnc12)N1CCCCC1` [Example 18], in the data set with stress ulcer (setting [1]), the inhibition in vivo at 3 mg/kg worked out at 80% and the inhibition in vivo at 10 mg/kg was 76%.
`O=C(Sc1cccn2c(=O)ccnc12)N1CCCC1` [Example 19]: in the data set on stress ulcer (setting [1]), the inhibition in vivo at 10 mg/kg came out at 45%.
Take `O=C(Sc1cccn2c(=O)ccnc12)N1CCOCC1` [Example 9]: in the data set with stress ulcer (setting [1]), the inhibition in vivo at 3 mg/kg was 33% and the inhibition in vivo at 10 mg/kg stood at 66%. For the same compound, the inhibition in vivo at 30 mg/kg with stress ulcer (setting [2]) is 80%.
For `CCOC(=O)c1cnc2c(SC(=O)N3CCCC3)cccn2c1=O` [Example 16], in that order: 40%, 62% and 85%.
`O=C(Sc1cccn2c(=O)ccnc12)N1CCSC1` [Example 17]: in the data set on stress ulcer (setting [1]), the inhibition in vivo at 3 mg/kg was 74% and the inhibition in vivo at 10 mg/kg stood at 72%. Besides, the inhibition in vivo at 30 mg/kg in the data set on stress ulcer (setting [2]) came to 70%. In addition, the “acute toxicity (dead cases)” value in the data set with mice was “no dead case even at a dose of 500 mg/kg”.
As for `CN/C(=N/CCSCc1nc[nH]c1C)NC#N` [Cimetidine, reference compound], in the data set with stress ulcer (po, 7 h), the inhibition in vivo at 30 mg/kg was found to be 56%.
In the case of `CCOC(=O)c1cnc2c(SC(=O)N3CCCCC3)cccn2c1=O` [Example 13], in the data set with stress ulcer (setting [1]), the inhibition in vivo at 3 mg/kg was 34% and the inhibition in vivo at 10 mg/kg worked out at 70%. Further, the inhibition in vivo at 30 mg/kg in the data set on stress ulcer (setting [2]) came out at 81%.
Consider `O=C(Sc1cccn2c(=O)ccnc12)N1CCSCC1` [Example 7], for which, in the data set with stress ulcer (setting [1]), the inhibition in vivo at 3 mg/kg worked out at 46% and the inhibition in vivo at 10 mg/kg was found to be 77%. Also, the inhibition in vivo at 30 mg/kg in the data set with stress ulcer (setting [2]) came out at 71%. In addition, in the data set with mice, the “acute toxicity (dead cases)” value is recorded as “no dead case even at a dose of 500 mg/kg”.
Consider `CCOC(=O)c1cnc2c(SC(=O)N3CCSC3)cccn2c1=O` [Example 14], for which the inhibition in vivo at 1 mg/kg with stress ulcer (1 mg/kg, oral, 30 minutes before stress load, male SD rats, 23° C. water immersion, 7 hours) came to 45%. Besides, in the data set on stress ulcer (setting [1]), the inhibition in vivo at 3 mg/kg worked out at 50% and the inhibition in vivo at 10 mg/kg amounted to 68%. The inhibition in vivo at 30 mg/kg in the data set on stress ulcer (setting [2]) is 89%. In addition, the “acute toxicity (dead cases)” value in the data set on mice was “no dead case even at a dose of 500 mg/kg”.
